For the data set the following is noted: pH 6.5.

Procedure: Human gastro-intestinal juice was obtained from healthy male volunteers who had been fasting for 8 h. A tube was introduced intranasally after local anaesthesia with xylocaine, and gastric juice was collected. Thereafter one standardized meal was given 1 h before sampling of duodenal and distal jejunum juice and another the next morning before the collection of distal ileal juice. After centrifugation the gastric and intestinal juices were frozen in aliquots of 1 ml and stored at -20° C. […] The peptide or peptide analog (10 μl of 10 mM peptide in 0.9% aqueous NaCl) was added to 190 μl of undiluted juice at 37° C. Aliquots of 25 μl were withdrawn at intervals and mixed with 100 μl acetone to stop the reaction. After centrifugation for 10 min at 10,000 g, 10 μl of the supernatant was analyzed by reversed phase HPLC. […] Analysis was carried out in a Varian 5000 HPLC analyzer equipped with a UV-detector (220 nm). Column Bondapak TM C18 (3.9×300 mm), eluant MeOH/0.025 M NH4 Ac (isocratic conditions), flow rate 1 ml/min. […] Protein: Bio-Rad protein assay. pH: Orion model SA720; pH-paper Merck (Darmstadt), range 4.0-7.0.

For the compound `NC(=O)CC[C@@H]1NC(=O)[C@H](Cc2ccccc2)NC(=O)[C@H](Cc2ccc(O)cc2)NC(=O)CCSSC[C@@H](C(=O)N2CCC[C@H]2C(=O)N[C@H](CCCN=C(N)N)C(=O)NCC(N)=O)NC(=O)[C@H](CC(N)=O)NC1=O` [DDAVP, Mpa-Tyr-Phe-Gln-Asn-Cys-Pro-D-Arg-Gly-GlyNH2], the “DDAVP degraded (to about 50%)” value is on record as “about 50%”.
